From patent publication US20260234147A1 (priority 2023, published 2026)
Like-named read-outs stand apart in the source and are kept apart here.

Legend:
[1] = molecular target: T1, α2A adrenergic receptor (Homo sapiens, UniProt P08913); experiment: Radioligand binding assay (Eurofins Cerep), [3H]RX 821002 displacement
T1 construct: Eurofins Cerep (contract screening)
T1 sequence (P08913 1-465): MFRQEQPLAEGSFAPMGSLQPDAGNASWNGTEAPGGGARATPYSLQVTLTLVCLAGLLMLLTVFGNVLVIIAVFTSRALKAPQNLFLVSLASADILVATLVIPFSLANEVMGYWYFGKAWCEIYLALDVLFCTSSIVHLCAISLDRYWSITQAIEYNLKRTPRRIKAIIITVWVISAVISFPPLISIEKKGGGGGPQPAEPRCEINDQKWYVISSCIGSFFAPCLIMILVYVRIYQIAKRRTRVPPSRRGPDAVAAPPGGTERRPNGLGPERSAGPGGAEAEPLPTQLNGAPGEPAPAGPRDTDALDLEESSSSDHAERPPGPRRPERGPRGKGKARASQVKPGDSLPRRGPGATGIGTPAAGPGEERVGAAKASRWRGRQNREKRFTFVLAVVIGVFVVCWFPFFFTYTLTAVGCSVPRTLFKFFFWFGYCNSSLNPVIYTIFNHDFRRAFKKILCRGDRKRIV

[2] = molecular target: T2, α2C adrenergic receptor (Homo sapiens, UniProt P18825); experiment: as above
T2 construct: Eurofins Cerep (contract screening)
T2 sequence (P18825 1-462): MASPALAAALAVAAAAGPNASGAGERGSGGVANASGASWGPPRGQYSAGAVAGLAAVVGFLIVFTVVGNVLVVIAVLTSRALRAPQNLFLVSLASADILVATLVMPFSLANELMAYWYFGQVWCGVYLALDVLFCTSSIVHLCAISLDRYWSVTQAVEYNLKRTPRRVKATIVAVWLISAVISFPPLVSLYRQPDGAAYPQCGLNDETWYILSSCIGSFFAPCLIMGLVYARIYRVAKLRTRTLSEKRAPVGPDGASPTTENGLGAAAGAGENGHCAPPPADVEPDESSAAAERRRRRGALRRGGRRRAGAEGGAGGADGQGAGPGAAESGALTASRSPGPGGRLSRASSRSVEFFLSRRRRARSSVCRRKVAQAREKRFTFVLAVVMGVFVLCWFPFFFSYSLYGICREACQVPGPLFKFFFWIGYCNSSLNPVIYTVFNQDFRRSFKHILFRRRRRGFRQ

[3] = molecular target: hMOR (Homo sapiens, UniProt P35372); experiment: Radioligand binding assay (Eurofins Cerep), [3H]DAMGO displacement
Sequence of hMOR (P35372 whole entry): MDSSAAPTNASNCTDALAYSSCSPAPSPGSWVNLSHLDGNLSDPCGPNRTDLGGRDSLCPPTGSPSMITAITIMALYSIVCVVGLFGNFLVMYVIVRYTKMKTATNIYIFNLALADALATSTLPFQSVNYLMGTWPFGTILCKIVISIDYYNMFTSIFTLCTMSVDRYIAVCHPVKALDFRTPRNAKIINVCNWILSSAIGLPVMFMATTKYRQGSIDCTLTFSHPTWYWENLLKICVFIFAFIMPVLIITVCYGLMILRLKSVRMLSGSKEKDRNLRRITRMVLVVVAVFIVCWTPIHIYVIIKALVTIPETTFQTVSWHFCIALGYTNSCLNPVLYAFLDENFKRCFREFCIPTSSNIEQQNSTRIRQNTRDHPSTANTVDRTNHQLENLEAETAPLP

[4] = molecular target: hKOR (Homo sapiens, UniProt P41145); experiment: Radioligand binding assay (Eurofins Cerep), [3H]U69,593 displacement
Sequence of hKOR (P41145 whole entry): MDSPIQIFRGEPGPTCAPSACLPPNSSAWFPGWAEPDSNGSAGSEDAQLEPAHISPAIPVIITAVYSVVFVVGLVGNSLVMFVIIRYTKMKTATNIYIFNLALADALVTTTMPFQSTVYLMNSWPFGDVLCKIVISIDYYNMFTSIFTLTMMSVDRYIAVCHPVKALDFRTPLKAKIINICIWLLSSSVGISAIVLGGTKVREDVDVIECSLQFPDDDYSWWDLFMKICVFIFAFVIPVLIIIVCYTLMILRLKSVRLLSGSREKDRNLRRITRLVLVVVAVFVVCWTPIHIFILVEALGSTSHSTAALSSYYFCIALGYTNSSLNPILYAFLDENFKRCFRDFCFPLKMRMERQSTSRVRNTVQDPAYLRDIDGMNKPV

[5] = molecular target: hDOR (Homo sapiens, UniProt P41143); experiment: Radioligand binding assay (Eurofins Cerep), [3H]DADLE displacement
Sequence of hDOR (P41143 whole entry): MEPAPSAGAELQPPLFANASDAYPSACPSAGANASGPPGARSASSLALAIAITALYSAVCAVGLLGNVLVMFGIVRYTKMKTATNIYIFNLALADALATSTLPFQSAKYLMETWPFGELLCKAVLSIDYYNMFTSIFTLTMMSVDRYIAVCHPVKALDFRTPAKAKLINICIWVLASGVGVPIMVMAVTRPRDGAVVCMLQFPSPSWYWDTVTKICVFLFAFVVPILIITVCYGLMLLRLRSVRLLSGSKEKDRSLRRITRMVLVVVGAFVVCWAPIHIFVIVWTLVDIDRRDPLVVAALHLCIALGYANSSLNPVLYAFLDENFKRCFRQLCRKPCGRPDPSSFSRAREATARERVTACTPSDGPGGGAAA

[6] = Alpha2A Ki ± SEM (nM), Table B1, mean ± SEM, 3 independent experiments
[7] = Table B1, mean ± SEM, 3 independent experiments, read-out: Alpha2C Ki ± SEM
[8] = Table B1, mean ± SEM, 3 independent experiments, read-out: MOR Ki ± SEM
[9] = Alpha2C Ki ± SEM (nM), Table B1, mean ± SEM, 3 independent experiments
[10] = Table A1, data summary #1, read-out: KOR Ki ± SEM
[11] = Table A4, data summary #2, read-out: KOR Ki ± SEM
[12] = Table A4, data summary #2, read-out: DOR Ki ± SEM
[13] = Table A4, data summary #2, read-out: Alpha2A Ki ± SEM
[14] = Table 3-6, 3 independent experiments, read-out: Ki (nM ± SEM) KOR
[15] = Table 3-6, 3 independent experiments, read-out: Ki (nM ± SEM) DOR
[16] = Ki (nM ± SEM) a2A-AR, Table 3-6, 3 independent experiments
[17] = Table 3-6, 3 independent experiments, read-out: Ki (nM ± SEM) MOR
[18] = Table A4, data summary #2, read-out: MOR Ki ± SEM
[19] = Table B1′, read-out: KOR Ki ± SEM
[20] = Table B1′, read-out: DOR Ki ± SEM
[21] = alpha2A Ki ± SEM (nM), Table B1′
[22] = Table B1′, read-out: MOR Ki ± SEM

Structure (SMILES): COC(=O)C=C1CCN2CCC(O)(c3ccccc3OC)CC2C1 (single isomer, unassigned) [SG-01-005A]
- Ki [1, 6]: 1000 ± 254 nM
- Ki [2, 7]: 489 ± 83.4 nM
- Ki [3, 8]: > 10000 nM

Structure (SMILES): COC(=O)C=C1CCN2CCC(O)(c3ccccc3OC)CC2C1 (single isomer, unassigned) [SG-01-005B]
- Ki [1, 6]: 110 ± 8 nM
- Ki [2, 9]: 46.7 ± 4.04 nM
- Ki [3, 8]: > 10000 nM

Structure (SMILES): CC[C@@H]1CN2CC[C@@]3(O)C(=Nc4cccc(OC)c43)[C@@H]2C[C@@H]1/C(=C\OC)C(=O)OC [7-Hydroxy Mitragynine, reference compound]
- Ki [4, 10]: 450 nM
- Ki [4, 11]: 450 nM
- Ki ([5]; Table A1, data summary #1, read-out: DOR Ki ± SEM): 243 nM
- Ki [5, 12]: 243 nM
- Ki ([1]; Table A1, data summary #1, read-out: Alpha2A Ki ± SEM): > 10000 nM
- Ki [1, 13]: > 10000 nM
- Ki ([2]; Table A1, data summary #1, read-out: Alpha2C Ki ± SEM): > 10000 nM

Structure (SMILES): COC(=O)CC1CCN(CCc2c[nH]c3cccc(OC)c23)CC1 [Compound 3-22]
- Ki ([4]; Table 3-1, 3 independent experiments, read-out: Ki (nM ± SEM) KOR): > 10000 nM
- Ki ([4]; Table 3-2, 3 independent experiments, read-out: Ki (nM ± SEM) KOR): > 10000 nM
- Ki ([4]; Table 3-3, 3 independent experiments, read-out: Ki (nM ± SEM) KOR): > 10000 nM
- Ki ([4]; Table 3-5, 3 independent experiments, read-out: Ki (nM ± SEM) KOR): > 10000 nM
- Ki [4, 14]: > 10000 nM
- Ki ([5]; Table 3-1, 3 independent experiments, read-out: Ki (nM ± SEM) DOR): > 10000 nM
- Ki ([5]; Table 3-2, 3 independent experiments, read-out: Ki (nM ± SEM) DOR): > 10000 nM
- Ki ([5]; Table 3-3, 3 independent experiments, read-out: Ki (nM ± SEM) DOR): > 10000 nM
- Ki ([5]; Table 3-5, 3 independent experiments, read-out: Ki (nM ± SEM) DOR): > 10000 nM
- Ki [5, 15]: > 10000 nM
- Ki ([1]; Ki (nM ± SEM) a2A-AR, Table 3-1, 3 independent experiments): 229 ± 24.9 nM
- Ki ([1]; Ki (nM ± SEM) a2A-AR, Table 3-2, 3 independent experiments): 229 ± 24.9 nM
- Ki ([1]; Ki (nM ± SEM) a2A-AR, Table 3-3, 3 independent experiments): 229 ± 24.9 nM
- Ki [1, 16]: 229 ± 24.9 nM
- Ki ([1]; Ki (nM ± SEM) a2A-ar, Table 3-5, 3 independent experiments): 229 ± 24.9 nM
- Ki ([2]; Ki (nM ± SEM) a2C-AR, Table 3-1, 3 independent experiments): 69.3 ± 4.2 nM
- Ki ([2]; Ki (nM ± SEM) a2C-AR, Table 3-2, 3 independent experiments): 69.3 ± 4.16 nM
- Ki ([2]; Ki (nM ± SEM) a2C-AR, Table 3-3, 3 independent experiments): 69.3 ± 4.16 nM
- Ki ([2]; Ki (nM ± SEM) a2C-AR, Table 3-5, 3 independent experiments): 69.3 ± 4.16 nM
- Ki ([2]; Ki (nM ± SEM) a2C-AR, Table 3-6, 3 independent experiments): 69.3 ± 4.16 nM
- Ki ([3]; Table 3-1, 3 independent experiments, read-out: Ki (nM ± SEM) MOR): > 10000 nM
- Ki ([3]; Table 3-2, 3 independent experiments, read-out: Ki (nM ± SEM) MOR): > 10000 nM
- Ki ([3]; Table 3-3, 3 independent experiments, read-out: Ki (nM ± SEM) MOR): > 10000 nM
- Ki ([3]; Table 3-5, 3 independent experiments, read-out: Ki (nM ± SEM) MOR): > 10000 nM
- Ki [3, 17]: > 10000 nM

Structure (SMILES): COC(=O)NC1CCN(CCc2c[nH]c3ccccc23)CC1 [Compound 3-68]
- Ki [4, 14]: > 10000 nM
- Ki [5, 15]: > 10000 nM
- Ki [1, 16]: 5090 ± 730 nM
- SR: Selectivity Ratio (KiMOR/Kiα2A) ([3]; Table 3-6): 0.37
- Ki [3, 17]: 1890 ± 454 nM

Structure (SMILES): COCC(C(=O)OC)C1CCN(CCc2c[nH]c3ccccc23)CC1 (stereo not shown) [Compound 3-71]
- Ki [4, 14]: > 10000 nM
- Ki ([5]; Ki (nM ± SEM) DOR, Table 3-6, 3 independent experiments): > 10000 nM
- Ki [1, 16]: 2760 ± 281 nM
- SR: Selectivity Ratio (KiMOR/Kiα2A) ([3]; Table 3-6): 2.02
- Ki [3, 17]: 5580 ± 1700 nM

Structure (SMILES): C#CCCN1CCC(O)(c2ccccc2OC)CC1 [SG-01-003, 1-(but-3-ynyl)-4-(2-methoxyphenyl)piperidin-4-ol]
- Ki [1, 6]: 5750 ± 1170 nM
- Ki [2, 7]: > 10000 nM
- Ki [3, 8]: > 10000 nM
- selectivity between MOR and α 2A ([3]; binding screen of intermediates): not selective towards both receptors

Structure (SMILES): COC(=O)C=C1CCN2CCC(O)(c3ccccc3OC)CC2C1 (stereo not shown) [SG-01-005, Methyl 2-(8-hydroxy-8-(2-methoxyphenyl)dihydro-1H-quinolizin-2(6H,7H,8H,9H, 9aH)-ylidene)acetate]
- Ki [1, 6]: 264 ± 16 nM
- Ki [2, 7]: 129 ± 37.9 nM
- Ki [3, 8]: > 10000 nM

Structure (SMILES): COC(=O)CC1CCN2CCC(O)(c3ccccc3OC)CC2C1 (stereo not shown) [SG-01-006, Methyl 2-(8-hydroxy-8-(2-methoxyphenyl)octahydro-1H-quinolizin-2-yl)acetate]
- Ki [1, 6]: 376 ± 72.2 nM
- Ki [2, 7]: 139 ± 20.3 nM
- Ki [3, 8]: > 10000 nM

Structure (SMILES): COC(=O)CC1CCN2CCC(c3ccccc3OC)CC2C1 (stereo not shown) [SG-01-008, Methyl 2-(8-(2-methoxyphenyl)octahydro-1H-quinolizin-2-yl)acetate]
- Ki ([1]; Table B1, mean ± SEM, 3 independent experiments, read-out: Alpha2A Ki ± SEM): 27.9 ± 3.05 nM
- Ki [2, 9]: 13.6 ± 0.828 nM
- Ki [3, 8]: > 10000 nM

Structure (SMILES): CC[C@@H]1CN2CCc3c([nH]c4cccc(OC)c34)[C@@H]2C[C@@H]1/C(=C\OC)C(=O)n1cccc1 [SUSM-526]
- Ki [4, 10]: 5800 ± 1390 nM
- Ki [4, 11]: > 10000 nM
- Ki ([4]; read-out: Ki at hKOR): 57900 nM
- Ki [5, 12]: > 10000 nM
- Ki [1, 13]: > 10000 nM
- Ki ([3]; Table A1, data summary #1, read-out: MOR Ki ± SEM): 2160 ± 941 nM
- Ki [3, 18]: 719 ± 414 nM
- Ki ([3]; read-out: Ki at hMOR / opioid binding (converted)): 21600 nM

Structure (SMILES): [2H]C([2H])([2H])N(C(=O)/C(=C/OC)[C@H]1C[C@H]2c3[nH]c4cccc(OC)c4c3CCN2C[C@H]1CC)C([2H])([2H])[2H] [SUSM-566]
- Ki [4, 11]: 1800 ± 251 nM
- Ki ([5]; DOR Ki ± SEM (nM), Table A4, data summary #2): 8300 ± 3300 nM
- Ki ([1]; Alpha2A Ki ± SEM (nM), Table A4, data summary #2): 1960 ± 535 nM
- Ki [3, 18]: 330 ± 28 nM

Structure (SMILES): COC(=O)C=C1CCN2CCC(O)(c3ccccc3OC)CC2C1 (stereo not shown) [drawing 167]
- Ki [4, 19]: > 10000 nM
- Ki [5, 20]: 2940 ± 2550 nM
- Ki [1, 21]: 227 ± 37 nM
- Ki [3, 22]: > 10000 nM

Structure (SMILES): COC(=O)CC1CCN2CCC(c3ccccc3OC)CC2C1 (stereo not shown) [drawing 171]
- Ki [4, 19]: > 10000 nM
- Ki [5, 20]: > 10000 nM
- Ki ([1]; Table B1′, read-out: alpha2A Ki ± SEM): 24 ± 3 nM
- Ki [3, 22]: > 10000 nM

Structure (SMILES): COC(=O)CC1CCN2CCC(O)(c3ccccc3)CC2C1 (stereo not shown) [drawing 173]
- Ki [4, 19]: 3600 ± 1080 nM
- Ki [5, 20]: > 10000 nM
- Ki [1, 21]: 129 ± 49 nM
- Ki [3, 22]: 8610 ± 2530 nM

Structure (SMILES): COC(=O)C=C1CCN2CCC(O)(c3ccccc3)CC2C1 (stereo not shown) [drawing 176]
- Ki [4, 19]: 7660 ± 2670 nM
- Ki [5, 20]: > 10000 nM
- Ki [1, 21]: 155 ± 65 nM
- Ki [3, 22]: > 10000 nM

Structure (SMILES): COC(=O)C=C1CCN2CCC(O)(c3cccc(OC)c3)CC2C1 (stereo not shown) [drawing 179]
- Ki [4, 19]: > 10000 nM
- Ki [5, 20]: > 10000 nM
- Ki [1, 21]: 37 ± 3 nM
- Ki [3, 22]: > 10000 nM

Structure (SMILES): COC(=O)C=C1CCN2CCC(O)(c3cccc(OC)c3)CC2C1 (stereo not shown) [drawing 180]
- Ki [4, 19]: > 10000 nM
- Ki [5, 20]: > 10000 nM
- Ki [1, 21]: 44 ± 5 nM
- Ki [3, 22]: > 10000 nM
